One assay deals with T1, BRDG1 SH2 domain (WT) (Homo sapiens, UniProt Q9ULZ2).
T1 sequence (Q9ULZ2 177-280 limits assumed): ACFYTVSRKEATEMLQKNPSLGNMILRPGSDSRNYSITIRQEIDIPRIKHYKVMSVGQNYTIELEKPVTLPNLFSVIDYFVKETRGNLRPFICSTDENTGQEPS
In words: Fluorescence polarization binding assay, wild-type BRDG1 SH2 domain. The note with it: table S2B. In general terms: In fluorescence polarisation assays a small probe gives low polarisation when free and higher when bound to something large.

Another assay relates to BKS SH2 domain. In words: Peptide-binding experiments, BKS SH2 domain. The note with it: table S2B.
Assay [1] deals with NTAL pTyr136 peptide with Leu+4 replaced by Ala (human). In words: fluorescence polarisation.
Assay [2] addresses T2, BRDG1 SH2 domain (Asp167-Ser285) C269A (human, UniProt Q9ULZ2 167-285, C269A).
T2 sequence (looked up): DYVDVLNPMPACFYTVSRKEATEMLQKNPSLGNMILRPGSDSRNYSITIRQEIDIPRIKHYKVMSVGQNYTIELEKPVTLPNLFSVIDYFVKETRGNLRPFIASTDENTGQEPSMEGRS
In words: crystal structure.

This is an account of results in publication PMC6590088 (Science signaling, 2010).

Non-standard residues stand in square brackets, D forms with d. No end group written: not given here. pY = N[C@@H](Cc1ccc(OP(=O)(O)O)cc1)C(=O)O

Regarding NSpY^136ENVLICK [NTAL-pTyr^136], the “affinity for the BRDG1 SH2 domain (in words)” value on BRDG1 SH2 domain (WT) is reported as “high affinities”. Moreover, in the assay with BKS SH2 domain, the “binding to the BKS SH2 domain (in words)” value was “bound strongly”.

B1: BRDG1 SH2 domain, wild type (fluorescence polarization) (domain or fragment)
chain: T1 sequence (Q9ULZ2 177-280 limits assumed)
Turning to B1, the fold reduction in affinity relative to the wild-type NTAL peptide in assay [1] came to 12 fold.

B2: NTAL phosphopeptide ANSpY136ENVLIAK-NH2 (peptide)
peptide: ANS[pY]ENVLIAK-NH2
modifications: N-terminus assumed
SMILES: CC[C@H](C)[C@H](NC(=O)[C@H](CC(C)C)NC(=O)[C@@H](NC(=O)[C@H](CC(N)=O)NC(=O)[C@H](CCC(=O)O)NC(=O)[C@H](Cc1ccc(OP(=O)(O)O)cc1)NC(=O)[C@H](CO)NC(=O)[C@H](CC(N)=O)NC(=O)[C@H](C)N)C(C)C)C(=O)N[C@@H](C)C(=O)N[C@@H](CCCCN)C(N)=O
In the case of B2, in assay [2], the binding result is “binds”.
